In patent publication US20250144216A1, “NEAR-INFRARED PHOTODYNAMIC THERAPY USING SECOND HARMONIC GENERATION NANOPARTICLE AND VISIBLE LIGHT REACTIVE PHOTOSENSITIZER” (ARIEL SCIENTIFIC INNOVATIONS LTD., priority 2022, published 2025):

Experiments:
[1] = test system: S. aureus (ATCC 25923); assay: Dark toxicity, viability of S. aureus (CFU count); assay type: cell-based; conditions: dark conditions; compared to the control
Protocol: S. aureus (ATCC 25923) were grown on Brain Heart agar plates (BHA, Acumedia, Lansing, MI, USA) for 24 hours. […] 200 μl Cell suspensions in 0.9% saline (10^3-10^4 cells/ml) in sterile saline solution were incubated with 20 μl of PDT nanoparticle conjugates (400 μg/ml) in the dark with shaking for 30 minutes. Subsequently, aliquots of each sample (100 μl) were spread over BHA plates with a Drigalsky spreader and incubated at 37° C. for 24 h. The colony forming units (CFU) were counted using a colony counter Scan 500 (Interscience, Saint-Nom-la-Breteche, France).

[2] = test system: S. aureus (ATCC 25923); assay: microbe, parasite or virus in culture; assay type: cell-based
Protocol: Laser Setup—Laser was generated using Millennia® Pro s Series 5SJSPG (Spectra physics, USA) laser setup to generate a […] continuous wave laser which was passed through an ultra-fast oscillator Femtosource® Scientific 20 (Femtolasers, Inc.) to generate the Near Infrared (800 nm) pulsed wave (pulse frequency 76.9 MHz) beamline. The beamline was appropriately arranged to provide real-time power readings using a beam splitter. Power measurements were recorded using a compact power meter PM100D (Thorlabs, Inc.) with S370C thermal power head (Thorlabs, Inc.)).
S. aureus (ATCC 25923) were grown on Brain Heart agar plates (BHA, Acumedia, Lansing, MI, USA) for 24 hours. Grown cells were transferred into Brain Heart broth (BH, Acumedia, Lansing, MI, USA) and incubated at 37±1° C. with shaking at 170 rpm until reaching the absorbance A=0.10±0.02 at 660 nm, corresponding to a final concentration of 10^8 cells/ml and diluted appropriately to the final concentration of 10^3-10^4 cells/ml with commercially available sterile 0.9% saline solution before the light and dark phototoxicity assays.
200 μl bacterial suspensions in 0.9% sterile saline solution (10^3-10^4 cells/μl) were incubated with 20 μl of PDT nanoparticle conjugates (400 μg/ml) under laser (800 nm, 232-228 mW,76.9 MHz) with shaking for 10 minutes. […] The CFUwere counted using a colony counter Scan 500.

COc1cc(/C=C/C(=O)CC(=O)/C=C/c2ccc(O)c(OC)c2)ccc1O [Curcumin, curcumin]
increase in viability of S. aureus [1]: 14.2±1.1%
viability of S. aureus increased by ([2]; 10 minutes pulsed NIR (800 nm) laser exposure): 20.2±1.4%

C=CC1=C(C)c2cc3[nH]c(cc4nc(cc5[nH]c(cc1n2)c(C)c5CCC(=O)O)C(CCC(=O)O)=C4C)c(C)c3C=C [PPIX, protoporphyrin IX]
inhibition at 400 µg/mL ([2]; Staphylococcus aureus, ATCC25923, 10 min, read-out: viability of S. aureus reduced by): 20.4 ± 2.5%
